The target of the assay is T1, human cytochrome P450 (CYP) 2C19 (Homo sapiens, UniProt P33261).
T1 construct: made in house; host or cells: yeast (microsomal fraction)
The assay is described as follows: Cytochrome P450 Inhibition Assay, CYP 2C19. The class given is in vitro ADME. The conditions noted are these: expected IC50 range of known inhibitor (positive control); read-out: IC50 range (μM), CYP 2C19. The protocol: Cytochrome P450 Inhibition Assay
The inhibitory potential (IC50) of test compounds against 5 human cytochrome P450 (CYP) isoforms (1A2, 2C9, 2C19, 3A4 and 2D6) was assessed using an automated fluorescent end point in vitro assay modified from Crespi (Crespi and Stresser, J Pharmacol Toxicol Methods 2000, 44: 325-331). Microsomal subcellular fractions prepared from Yeast cell lines expressing each human CYP isoform were used as an enzyme source in this assay. The activity of the 5 major human CYPs was determined from the biotransformation of a number of coumarin substrates to fluorescent metabolites, in the presence of NADPH. […] Stock solutions of each CYP, with its respective substrate, were prepared in phosphate buffer pH 7.4 (see Table 1) and 178 μl was added to the well of a black solid, flat bottom, 300 μl 96 well microtitre plate (Corning Costar). […] After pre-incubating at 37° C. for 5 min the reactions were started with addition of NADPH (20 μl, concentration shown in Table 1). The final solvent content in each incubation was <=2% (1% from the test compound and a maximum of 1% from the substrate). The appropriate solvent controls and substrate blanks were included in each experiment to assess control activity and identify any inherent fluorescence due to the test compounds. In addition, known inhibitors of each CYP were included as positive controls (see Table 3 for inhibitor concentrations and expected IC50 ranges). The reactions were stopped at defined timepoints (see Table 1) by quenching with 100 μl of solvent (acetonitrile:0.5M Tris buffer 80:20 v/v). The plates were read on a fluorimeter (Spectrafluor Plus) at the appropriate excitation and emission wavelengths (listed in Table 2) and the percent activity, corrected for control, was plotted against the test compound concentration.

T1 sequence (P33261 whole entry): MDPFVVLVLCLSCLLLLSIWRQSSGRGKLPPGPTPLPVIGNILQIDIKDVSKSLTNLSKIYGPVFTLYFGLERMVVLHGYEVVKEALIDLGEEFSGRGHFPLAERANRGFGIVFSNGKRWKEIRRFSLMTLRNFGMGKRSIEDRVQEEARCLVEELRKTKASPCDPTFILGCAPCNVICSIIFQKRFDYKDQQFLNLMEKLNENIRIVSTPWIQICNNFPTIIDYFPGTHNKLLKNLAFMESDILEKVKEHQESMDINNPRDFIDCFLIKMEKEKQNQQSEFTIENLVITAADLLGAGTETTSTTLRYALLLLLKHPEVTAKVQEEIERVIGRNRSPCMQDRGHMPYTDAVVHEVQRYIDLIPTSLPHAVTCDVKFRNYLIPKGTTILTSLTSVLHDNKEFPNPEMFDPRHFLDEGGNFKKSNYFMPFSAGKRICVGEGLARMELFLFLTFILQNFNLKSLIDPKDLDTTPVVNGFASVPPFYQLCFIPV

As a reminder, the IC50 is the concentration that gives 50% inhibition. Consider `COc1ccc2[nH]c([S+]([O-])Cc3ncc(C)c(OC)c3C)nc2c1` (stereo not shown) [Omeprazole, reference compound], for which the IC50 fell in the range of 1.5 to 4.6 µM.

The record behind these values is patent US20090318468A1, “PYRAZOLE COMPOUNDS 436” (AstraZeneca AB, priority 2008, published 2009).
